Test results published in ChEMBL document CHEMBL4842344, “Design, synthesis and biological activity evaluation of novel scopoletin-NO donor derivatives against MCF-7 human breast cancer in vitro and in vivo” (Eur J Med Chem, 2021).
Activity calls are given as the source filed them. No cut-off for these calls is given here.

How the values were obtained:
[1] = tested on: MCF7; experiment: Antiproliferative activity against human MCF7 cells assessed as inhibition of cell growth measured after 48 hrs by MTT assay; type: functional, cell-based; details: MCF7, 48 h
[2] = tested on: MDA-MB-231; experiment: Antiproliferative activity against human MDA-MB-231 cells assessed as inhibition of cell growth measured after 48 hrs by MTT assay; type: functional, cell-based; details: MDA-MB-231, 48 h
[3] = tested on: MCF-10A; experiment: Cytotoxicity against human MCF-10A cells assessed as reduction in cell viability measured after 48 hrs by MTT assay; type: cell-based
[4] = tested on: MCF7; experiment: Inhibition of cell proliferation in human MCF7 cells assessed as increase in intracellular NO production at 25 uM measured after 2.5 hrs by nitric oxide assay; type: functional, cell-based

SMILES | IC50 [1] [µM] | IC50 [2] [µM] | IC50 [3] [µM] | Activity [4]
COc1cc2cc(C(=O)NCCCc3ccccc3)c(=O)oc2cc1OCCCOc1no[n+]([O-])c1S(=O)(=O)c1ccccc1 | 0.87 | 0.76 | 5.33 | Active
COc1cc2cc(C(=O)NCCc3ccc(F)cc3)c(=O)oc2cc1OCCCOc1no[n+]([O-])c1S(=O)(=O)c1ccccc1 | 0.44 | 1.11 | 7.95 | Active
COc1cc2cc(C(=O)Nc3ccccc3)c(=O)oc2cc1OCCCOc1no[n+]([O-])c1S(=O)(=O)c1ccccc1 | 0.74 | 1.19 | 9.67 | Active
COc1cc2ccc(=O)oc2cc1O [SCOPOLETIN] | > 25 | > 25 | > 25 | –
